From patent publication US4278762A, “Method for the quantitative determination of plasminogen activators” (Pentapharm AG, priority 1976, dated 1981)
Where a name gives a salt, the structure may show the parent alone. Non-standard residues stand in square brackets, D forms with d. Residues, ends and D or L forms follow the SMILES beside them. *: point of attachment. Hydrocinnamoyl = O=C(CCc1ccccc1)*; dChg = N[C@@H](C(=O)O)C1CCCCC1; pNA = O=[N+]([O-])c1ccc(N*)cc1; Chg = N[C@H](C(=O)O)C1CCCCC1; Cbz = O=C(OCc1ccccc1)*; PhAc = O=C(Cc1ccccc1)*; Bz = O=C(c1ccccc1)*

Target: T1, bovine trypsin (Bos taurus, UniProt P00760)
T1 sequence (P00760 24-246): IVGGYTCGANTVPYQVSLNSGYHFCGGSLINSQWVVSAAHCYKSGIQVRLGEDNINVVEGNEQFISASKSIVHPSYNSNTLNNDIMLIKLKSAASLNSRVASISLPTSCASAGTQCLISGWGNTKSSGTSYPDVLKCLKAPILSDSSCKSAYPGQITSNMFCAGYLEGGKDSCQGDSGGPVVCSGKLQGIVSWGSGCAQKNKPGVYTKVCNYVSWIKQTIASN
Experiment: Activity of bovine trypsin at constant substrate and enzyme concentrations (Table IV)
Type: biochemical
Conditions: substrate concentration 2 × 10^-4 M; pH 8.4, ionic strength 0.30, 37° C., 405 nm
Procedure: The results listed in Table IV were obtained under the following experimental conditions: In a measuring vessel 1.7 ml of tris-imidazole buffer having a pH of 8.4 and an ionic strength of 0.30 were mixed at 37° C. with 0.1 ml of an aqueous trypsin solution having a concentration of 2 NF units of trypsin per ml. To the mixture 0.2 ml of a 2×10^-3 molar solution of the substrate to be tested was added. Thereafter, the quantity of p-nitroaniline released from the substrate by the action of the trypsin was determined by measuring the change in the optical density Δ OD per minute at a wave length of 405 nm.

Row | Structure (SMILES) | Quantity in nanomoles of p-nitroaniline enzymatically released from the substrate by 1 NF unit of trypsin in 1 minute
1 | CC[C@H](C)[C@H](NC(=O)c1ccccc1)C(=O)NCC(=O)N[C@@H](CCCNC(=N)N)C(=O)Nc1ccc([N+](=O)[O-])cc1 [Substrate III, N^α -Bz-Ile-Gly-Arg-pNA.HCl] (Bz-Ile-Gly-Arg-pNA) | 28.5 nmol
2 | CC(C)[C@@H](N)C(=O)NCC(=O)N[C@@H](CCCNC(=N)N)C(=O)Nc1ccc([N+](=O)[O-])cc1 [XVI] (H-[dV]-Gly-Arg-pNA) | 33.3 nmol
3 | N=C(N)NCCC[C@H](NC(=O)CNC(=O)[C@@H](NC(=O)OCc1ccccc1)C1CCCCC1)C(=O)Nc1ccc([N+](=O)[O-])cc1 [X] (Cbz-[Chg]-Gly-Arg-pNA) | 46.7 nmol
4 | CC(C)C[C@H](NC(=O)c1ccccc1)C(=O)N[C@@H](CO)C(=O)N[C@@H](CCCNC(=N)N)C(=O)Nc1ccc([N+](=O)[O-])cc1 [Substrate VII, N^α -Bz-Leu-Ser-Arg-pNA.HCl] (Bz-Leu-Ser-Arg-pNA) | 25.7 nmol
5 | CC(C)[C@H](NC(=O)c1ccccc1)C(=O)N[C@@H](CO)C(=O)N[C@@H](CCCNC(=N)N)C(=O)Nc1ccc([N+](=O)[O-])cc1 [Substrate V, N^α -Bz-Val-Ser-Arg-pNA.HCl] | 15.9 nmol
6 | CC(C)[C@H](NC(=O)OCc1ccccc1)C(=O)NCC(=O)N[C@@H](CCCNC(=N)N)C(=O)Nc1ccc([N+](=O)[O-])cc1 [XV] (Cbz-Val-Gly-Arg-pNA) | 41.3 nmol
7 | CC(C)[C@H](NC(=O)Cc1ccccc1)C(=O)NCC(=O)N[C@@H](CCCNC(=N)N)C(=O)Nc1ccc([N+](=O)[O-])cc1 [Substrate IX, N^α -2-Phenylacetyl-Val-Gly-Arg-pNA.HCl] (PhAc-Val-Gly-Arg-pNA) | 17.5 nmol

The remaining lines, values ahead:

Row | Quantity in nanomoles of p-nitroaniline enzymatically released from the substrate by 1 NF unit of trypsin in 1 minute | Structure (SMILES)
8 | 41.9 nmol | N=C(N)NCCC[C@H](NC(=O)CNC(=O)[C@H](NC(=O)c1ccccc1)C1CCCCC1)C(=O)Nc1ccc([N+](=O)[O-])cc1 [XIV] (Bz-[dChg]-Gly-Arg-pNA)
9 | 10,8 nanomoles | CC(C)[C@H](N)C(=O)NCC(=O)N[C@@H](CCCNC(=N)N)C(=O)Nc1ccc([N+](=O)[O-])cc1 [Substrate II, H-Val-Gly-Arg-pNA.2HCl] (H-Val-Gly-Arg-pNA)
10 | 8,4 nanomoles | CC(C)[C@H](NC(=O)[C@H](Cc1ccccc1)NC(=O)c1ccccc1)C(=O)N[C@@H](CCCNC(=N)N)C(=O)Nc1ccc([N+](=O)[O-])cc1 [N^α --Bz--Phe--Val--Arg--pNA . HCl, reference compound] (Bz-Phe-Val-Arg-pNA)
11 | 19.2 nmol | CC(C)C[C@H](NC(=O)c1ccccc1)C(=O)NCC(=O)N[C@@H](CCCNC(=N)N)C(=O)Nc1ccc([N+](=O)[O-])cc1 [Substrate IV, N^α -Bz-Leu-Gly-Arg-pNA.HCl] (Bz-Leu-Gly-Arg-pNA)
12 | 0,45 nanomoles | N=C(N)NCCCC(NC(=O)c1ccccc1)C(=O)Nc1ccc([N+](=O)[O-])cc1 (racemic) [N^α --Bz--DL--Arg--pNA . HCl, reference compound]
13 | 19.1 nmol | CC[C@H](C)[C@H](NC(=O)c1ccccc1)C(=O)N[C@@H](CO)C(=O)N[C@@H](CCCNC(=N)N)C(=O)Nc1ccc([N+](=O)[O-])cc1 [Substrate VI, N^α -Bz-Ile-Ser-Arg-pNA.HCl] (Bz-Ile-Ser-Arg-pNA)
14 | 14.2 nmol | CC(C)[C@H](NC(=O)CCc1ccccc1)C(=O)NCC(=O)N[C@@H](CCCNC(=N)N)C(=O)Nc1ccc([N+](=O)[O-])cc1 [Substrate VIII, N^α -3-Phenylpropionyl-Val-Gly-Arg-pNA.HCl] (Hydrocinnamoyl-Val-Gly-Arg-pNA)
15 | 37.9 nmol | N=C(N)NCCC[C@H](NC(=O)CNC(=O)[C@@H](NC(=O)c1ccccc1)C1CCCCC1)C(=O)Nc1ccc([N+](=O)[O-])cc1 [XII] (Bz-[Chg]-Gly-Arg-pNA)
16 | 20.0 nmol | N=C(N)NCCC[C@H](NC(=O)CNC(=O)[C@@H](N)C1CCCCC1)C(=O)Nc1ccc([N+](=O)[O-])cc1 [XI] (H-[Chg]-Gly-Arg-pNA)
17 | 28.8 nmol | N=C(N)NCCC[C@H](NC(=O)CNC(=O)[C@H](N)C1CCCCC1)C(=O)Nc1ccc([N+](=O)[O-])cc1 [XIII] (H-[dChg]-Gly-Arg-pNA)

System: kallikrein
Experiment: Hydrolysis of tripeptide-p-nitroanilides by kallikrein
Type: biochemical
Conditions: not given

Row | Structure (SMILES) | hydrolysis by kallikrein (in words)
18 | N=C(N)NCCC[C@H](NC(=O)[C@H](Cc1ccccc1)NC(=O)[C@@H]1CCCN1)C(=O)Nc1ccc([N+](=O)[O-])cc1 [A] (H-Pro-Phe-Arg-pNA) | hydrolyzed by kallikrein
19 | CC(C)[C@H](N)C(=O)NCC(=O)N[C@@H](CCCNC(=N)N)C(=O)Nc1ccc([N+](=O)[O-])cc1 [B] (H-Val-Gly-Arg-pNA) | not split by kallikrein at all

Target: T2, urokinase (Homo sapiens, UniProt P00749)
T2 construct: also urine of healthy test persons
Experiment: Amidolytic splitting by urokinase and other plasminogen activators
Type: biochemical
Conditions: not given

Row | Structure (SMILES) | splitting by urokinase and other plasminogen activators (in words)
20 | CC(C)[C@H](N)C(=O)NCC(=O)N[C@@H](CCCNC(=N)N)C(=O)Nc1ccc([N+](=O)[O-])cc1 [B] (H-Val-Gly-Arg-pNA) | rapidly amidolytically split by urokinase

Target: T3, trypsin (Bos taurus, UniProt P00760)
T3 construct: b360 concerns trypsin in duodenal juice
T3 sequence (P00760 24-246): T1 sequence (P00760 24-246)
Experiment: Kinetic constants Km and vmax of substrate hydrolysis by trypsin (Lineweaver-Burk)
Type: biochemical
Conditions: per NF unit
Procedure: The enzyme and the substrate are mixed in a buffer solution, and the hydrolysis reaction is followed for 2 to 30 minutes. The concentration of substate [S] is varied, whereas the enzyme concentration is kept constant. If the extinction (OD=optical density) is plotted in a co-ordinate system as a function of time, a curve is obtained the tangent of which at time zero corresponds to the ideal course of the hydrolysis. By means of this tangent the initial rate of the hydrolysis can be determined.
If 1/v is plotted against (1/[S]), a Lineweaver-Burk diagram (cf. "Kurzes Lehrbuch der Biochemie" by P. KARLSON, Georg Thieme-Verlag, Stuttgart, 1967, p. 70) is obtained from which vmax and Km can be determined graphically.
For the determination of the kinetic constants Km and vmax listed in Table I aqueous dilution series of the substrates with concentrations from 0.1 to 2 μmoles/ml were used. […] The value of the quantity of p-nitroaniline formed per minute is a measure for the rate of hydrolysis at a given substrate concentration. […] The kinetic constants Km and vmax were determined from the points of intersection of the curves with the abscissa and the ordinate.

Row | Vmax | Structure (SMILES)
21 | 4.17 × 10^-3 μmole/min. NF | CC(C)[C@@H](N)C(=O)NCC(=O)N[C@@H](CCCNC(=N)N)C(=O)Nc1ccc([N+](=O)[O-])cc1 [XVI] (H-[dV]-Gly-Arg-pNA)
